Assay results published in patent publication US11555212B2, “Process for the production of sulfated phenolic compounds using modified Escerichia coli” (CysBio ApS, priority 2016, dated 2023).

What was measured:
[1] = target: T1, SULT1A1 Canis lupus familiaris (Canis lupus familiaris, UniProt Q29476); test: Production of zosteric acid from pHCA in E. coli expressing a sulfotransferase; format: cell-based; settings: E. coli BL21(DE3)pLysS expressing SULT1A1 Canis lupus familiaris; M9 glucose, 0.1 mM IPTG, 0.1 mM pHCA; four days
T1 construct: 1, 3, 4, 5, and 6 were cloned amplified from liver tissue cDNA; expressed in transfected cells; host or cells: E. coli BL21(DE3)pLysS
T1 sequence (Q29476 whole entry): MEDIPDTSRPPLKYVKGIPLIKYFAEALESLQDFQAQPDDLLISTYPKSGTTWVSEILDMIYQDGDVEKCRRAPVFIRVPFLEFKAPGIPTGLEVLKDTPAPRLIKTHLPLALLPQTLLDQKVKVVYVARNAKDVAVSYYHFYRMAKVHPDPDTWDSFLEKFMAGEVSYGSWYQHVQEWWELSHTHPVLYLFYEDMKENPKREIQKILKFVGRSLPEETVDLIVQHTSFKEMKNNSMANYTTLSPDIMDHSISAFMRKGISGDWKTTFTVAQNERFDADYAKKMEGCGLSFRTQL
Excerpt: (§1) A range of aryl sulfotransferases including SULT1A1 Rattus norvegicus (SEQ ID NO: 1), SULT1A1 Homo sapiens (SEQ ID NO: 2), SULT1A1 Equus caballus (SEQ ID NO: 3), SULT1A1 Sus scrofa domesticus (SEQ ID NO: 4), SULT1A1 Canis lupus familiaris (SEQ ID NO: 5) and SULT1E1 Gallus gallus domesticus (SEQ ID NO: 6) were expressed in Escherichia coli. […]. The nucleotide sequence of the gene encoding SEQ ID NO: 2 was codon optimized for expression in Escherichia coli (GeneArt, Life Technologies) and amplified by PCR using the primers in Table 1. The pETDuet-1 plasmid was digested with restriction endonucleases NcoI and SalI. The PCR products were then individually cloned into the plasmid pETDuet-1 using the Gibson reaction (New England Biolabs). The resulting plasmids were transformed into BL21(DE3)pLysS (Life Technologies).
(§2) The strains were grown in M9 minimal media containing glucose as a carbon source, and 0.1 mM IPTG for induction of gene expression as well as 0.1 mM p-coumaric acid (pHCA). After four days of growth, samples were withdrawn by filtration and analyzed by HPLC.
(§3) The concentration of p-courmaric acid (pHCA) and zosteric acid in the supernatant was quantified by high performance liquid chromatography (HPLC) and compared to chemical standards. HPLC was done on a Thermo setup using a HS-F5 column and mobile phases: 5 mM ammonium formate pH 4.0 (A) and acetonitrile (B) at 1.5 mL min-1, using a gradient elution starting at 5% B. From 0.5 min after injection to 7 min, the fraction of B increased linearly from 5% to 60%, and between 9.5 min and 9.6 the fraction of B decreased back to 5%, and remaining there until 12 min. pHCA and zosteric acid were quantified by measuring absorbance at 277 nm.

[2] = target: T2, SULT1A1 Rattus norvegicus (Rattus norvegicus, UniProt P17988); test: as above; format: cell-based; settings: E. coli BL21(DE3)pLysS expressing SULT1A1 Rattus norvegicus; M9 glucose, 0.1 mM IPTG, 0.1 mM pHCA; four days; culture media, HPLC
T2 construct: 1, 3, 4, 5, and 6 were cloned amplified from liver tissue cDNA; expressed in transfected cells
T2 sequence (P17988 whole entry): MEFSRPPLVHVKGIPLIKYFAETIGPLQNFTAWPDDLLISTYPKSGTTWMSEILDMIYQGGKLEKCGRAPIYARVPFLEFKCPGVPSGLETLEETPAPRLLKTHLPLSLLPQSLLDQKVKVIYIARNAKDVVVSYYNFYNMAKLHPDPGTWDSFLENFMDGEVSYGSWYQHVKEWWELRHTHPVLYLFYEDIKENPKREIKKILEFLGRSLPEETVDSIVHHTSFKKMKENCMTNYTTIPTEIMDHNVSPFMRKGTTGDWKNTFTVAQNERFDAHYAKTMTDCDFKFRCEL
Excerpt: as §1, §2, §3

SULT1A1 human [3] = target: T3, SULT1A1 human (Homo sapiens, UniProt P50225, V223M); test: as above; format: cell-based; settings: E. coli BL21(DE3)pLysS expressing SULT1A1 Homo sapiens; M9 glucose, 0.1 mM IPTG, 0.1 mM pHCA; four days
T3 construct: expressed in transfected cells; host or cells: E. coli BL21(DE3)pLysS
T3 sequence (P50225 whole entry V223M): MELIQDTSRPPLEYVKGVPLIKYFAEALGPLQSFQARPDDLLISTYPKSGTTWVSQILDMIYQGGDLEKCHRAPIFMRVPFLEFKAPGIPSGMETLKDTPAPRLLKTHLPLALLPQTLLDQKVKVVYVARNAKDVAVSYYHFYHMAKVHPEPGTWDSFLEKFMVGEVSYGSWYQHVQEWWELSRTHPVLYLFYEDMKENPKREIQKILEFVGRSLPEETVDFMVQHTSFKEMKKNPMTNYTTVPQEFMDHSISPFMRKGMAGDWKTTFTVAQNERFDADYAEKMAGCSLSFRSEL
Excerpt: as §1, §2, §3

RmXAL = target: T4, RmXAL (Rhodotorula mucilaginosa, UniProt P10248); test: pHCA and zosteric acid in culture media of E. coli expressing a tyrosine ammonia lyase; format: cell-based, Rhodotorula mucilaginosa/Rhodotorula rubra; settings: E. coli BL21(DE3)pLysS expressing RmXAL alone, M9 glucose, 0.1 mM IPTG, no substrate added
T4 construct: The gene encoding RmXAL was codon optimized using standard algorithms for expression in E. coli; expressed in transfected cells; host or cells: E. coli BL21(DE3)pLysS
T4 sequence (P10248 whole entry): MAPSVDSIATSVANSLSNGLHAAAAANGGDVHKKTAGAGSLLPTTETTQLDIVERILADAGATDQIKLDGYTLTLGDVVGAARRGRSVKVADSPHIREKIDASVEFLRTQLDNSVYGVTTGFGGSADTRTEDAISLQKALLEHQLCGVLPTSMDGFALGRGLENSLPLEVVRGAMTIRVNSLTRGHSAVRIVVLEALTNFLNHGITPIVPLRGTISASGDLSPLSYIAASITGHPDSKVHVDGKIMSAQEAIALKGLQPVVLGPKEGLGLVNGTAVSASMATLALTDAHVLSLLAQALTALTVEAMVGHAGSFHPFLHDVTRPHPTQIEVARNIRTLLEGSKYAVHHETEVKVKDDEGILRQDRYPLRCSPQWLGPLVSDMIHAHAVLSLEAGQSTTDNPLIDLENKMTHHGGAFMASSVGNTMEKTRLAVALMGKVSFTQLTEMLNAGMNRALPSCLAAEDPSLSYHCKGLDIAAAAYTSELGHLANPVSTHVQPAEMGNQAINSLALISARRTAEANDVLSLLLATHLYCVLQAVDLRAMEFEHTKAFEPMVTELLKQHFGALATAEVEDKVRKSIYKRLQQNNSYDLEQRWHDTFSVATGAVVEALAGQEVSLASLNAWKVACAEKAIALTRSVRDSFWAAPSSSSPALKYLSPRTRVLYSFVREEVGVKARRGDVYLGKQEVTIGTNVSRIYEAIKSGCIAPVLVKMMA
Experimental: as §3
The enzyme RmXAL from Rhodotorula mucilaginosa/Rhodotorula rubra (SEQ ID NO: 46) has tyrosine ammonia lyase activity, thus catalyzing the non-oxidative deamination of the amino acid tyrosine, releasing p-coumaric acid (pHCA) and ammonia. The gene encoding RmXAL was codon optimized using standard algorithms for expression in E. coli available by GeneArt (Life Technologies) and amplified by PCR using the primers shown in Table 5 and inserted into the pCDFDuet-1 vector (Novagen/Life Technologies), which had been digested by the restriction enzymes NdeI and BgIII, using Gibson reaction (New England Biolabs). […]

[4] = tested on: SULT1A1 Sus scrofa domesticus; test: Percent conversion of substrates by E. coli expressing a sulfotransferase; format: cell-based; settings: E. coli BL21(DE3)pLysS expressing SULT1A1 Sus scrofa domesticus; M9; pHCA 100 μM, resveratrol 95 μM or kaempferol 87 μM; overnight 37° C.
Experimental: as §3
(§4) Different sulfotransferases were examined for their substrate specificities against three substrates. We tested the sulfotransferases mentioned in example 1, as well as additional ones. The genes encoding these were cloned as described in example 1 using the primers shown in the table below from cDNA libraries of the respective organisms, except for the SULT1A1 from rat (Rattus norvegicus) codon-optimized for E. coli (described above). The resulting vectors were transformed into BL21(DE3)pLysS.
(§5) The resulting strains were grown in M9 medium containing either 100 μM pHCA, 95 μM resveratrol or 87 μM kaempferol. The cultures were grown overnight at 37° C., 300 rpm. The following day the supernatants were isolated and examined by HPLC as described in example 1.

SULT1A1 human [5] = target: T3, SULT1A1 human; test: as above; format: cell-based; settings: E. coli BL21(DE3)pLysS expressing SULT1A1 human; M9; pHCA 100 μM, resveratrol 95 μM or kaempferol 87 μM; overnight 37° C.
Experimental: as §3, §4, §5

[6] = tested on: SULT1E1 Gallus gallus domesticus; test: as above; format: cell-based; settings: E. coli BL21(DE3)pLysS expressing SULT1E1 Gallus gallus domesticus; M9; pHCA 100 μM, resveratrol 95 μM or kaempferol 87 μM; overnight 37° C.
Experimental: as §3, §4, §5

E. coli MG1655 = test: Toxicity of unsulfated or sulfated product: growth rates of E. coli; settings: M9 minimal media, 0.2% glucose, pH 7, 37° C.; pHCA 10-40 mM; zosteric acid 20 mM or 40 mM
Experimental: E. coli MG1655 was grown in chemically defined M9 minimal media with 0.2% glucose as a carbon source without further addition or with the additions of either 10 mM, 20 mM, 25 mM, 30 mM, 35 mM or 40 mM p-coumaric acid (pHCA), or with 20 mM or 40 mM of the sulfate ester of pHCA (zosteric acid). All media preparations had been adjusted to pH 7. Cells were grown at 37° C. with 250 rpm shaking in an orbital shaker. The growth rates were examined by following the optical density at 600 nm.

## O=C(O)/C=C/c1ccc(O)cc1 [pHCA, p-coumaric acid]
[1]
  pHCA remaining: 0.10 mM
[2]
  pHCA remaining: 0.02 mM
SULT1A1 human [3]
  pHCA remaining: 0.08 mM
RmXAL
  pHCA: 0.04 mM
[4]
  Percent conversion of the substrate: 8%
SULT1A1 human [5]
  Percent conversion of the substrate: 39%
[6]
  Percent conversion of the substrate: 17%
E. coli MG1655
  Toxicity to the cells (growth rates in exponential growth phase, OD 600 nm, FIG. 4): toxic to the cells

## O=C(O)/C=C/c1ccc(OS(=O)(=O)O)cc1 [Zosteric acid, zosteric acid]
[1]
  Zosteric acid formed: 0.01 mM
[2]
  Zosteric acid formed: 0.10 mM
SULT1A1 human [3]
  Zosteric acid formed: 0.02 mM
RmXAL
  Zosteric acid formed: Not detectable
